System: Mitochondria-located protein genes
Assay: DNA chip mRNA expression in yeast, mitochondria-located protein genes (Table 2)
Assay type: cell-based, Saccharomyces cerevisiae S288C
Settings: cells incubated two hours with the chemical substance
Procedure: Yeast (Saccharomyces cerevisiae S288C (α SUC2mal mel gap2 CUP1)) were incubated at 25° C. on YPD medium (yeast extract 1%, polypepton 2%, glucose 2%). One of toxic chemical substances was added to the cells at logarithmic growth phase, and the cells were further incubated for two hours. Cells were cultured without any chemical substance in the same condition, and were used as control. Concentrations of the chemical substances were defined to inhibit the growth of the yeast but not lead to death.
After completion of the incubation, the culture was centrifuged to collect the cells. To the cells, sodium acetate buffer (50 mM sodium acetate, 10 mM EDTA, 1% SDS) was added, and the mixture was shaken at 65° C. for five minutes, followed by returning to room temperature, and obtaining the supernatant, of which the procedures were repeated two times. To the supernatant, ½ amount of a solution of phenol/chloroform was added, and the mixture was centrifuged to give a supernatant, which was added with an equal amount of chloroform, and the mixture was centrifuged to give a supernatant. To the supernatant, an equal amount of isopropanol containing 0.3 M sodium acetate was added, and the mixture was allowed to stand at room temperature for 30 minutes, after which the mixture was centrifuged to give a sediment of the whole RNAs. Seventy % ethanol was added to the sediment, and the mixture was again centrifuged to give a sediment, which was then dried and dissolved in water. mRNA was isolated from the whole RNAs as followings. In view of the fact that a poly A chain is attached to the 3′ terminus of mRNA, a polynucleotide having a poly T structure which was immobilized on the surface of latex beads was used to trap the mRNA, and then the mRNA was washed and eluted with spine column (Oligotex-dT30<Super>mRNA Purification Kit, Takara). Reverse transcription of the mRNA was conducted with a reverse transcriptase (Super Script II Reverse Transcriptase; catalogue No. 18064-014, GibcoBRL) using fluorescence-labeled nucleotides to give cDNAs that were introduced with Cy3-dUTP or Cy5-dUTP during the reverse transcription.
The labeled cDNAs were dissolved in TE buffer (10mM Tris-HCl/1 mM EDTA, pH8.0), and the solution was dropped on the DNA chip containing the whole genes of yeast (DNA Chip Research Inc. Japan) so that the cDNAs were hybridized on the DNA chip at 65° C. for over 12 hours. The fluoresces intensity of the DNA chip was read with a scanner, and the ratio relative to the fluorescence intensity resulting from the absence of chemical substance was estimated as the following, which is shown in Tables 1 to 9: […]

[Cl][Pb][Cl] [(4), PbCl2]
The level of expressed mRNA in the presence of chemical substance/The level of expressed mRNA in the absence of chemical substance (yeast gene YKL003C): 1.8
The level of expressed mRNA in the presence of chemical substance/The level of expressed mRNA in the absence of chemical substance (yeast gene YKL016C): 1.7
The level of expressed mRNA in the presence of chemical substance/The level of expressed mRNA in the absence of chemical substance (yeast gene YKL141W): 1.7
The level of expressed mRNA in the presence of chemical substance/The level of expressed mRNA in the absence of chemical substance (yeast gene YKL142W): 1.4
The level of expressed mRNA in the presence of chemical substance/The level of expressed mRNA in the absence of chemical substance (yeast gene YKL148C): 0.7
The level of expressed mRNA in the presence of chemical substance/The level of expressed mRNA in the absence of chemical substance (yeast gene YKL170W): 1.9
The level of expressed mRNA in the presence of chemical substance/The level of expressed mRNA in the absence of chemical substance (yeast gene YKL194C): 1.6
The level of expressed mRNA in the presence of chemical substance/The level of expressed mRNA in the absence of chemical substance (yeast gene YKR066C): 0.7
The level of expressed mRNA in the presence of chemical substance/The level of expressed mRNA in the absence of chemical substance (yeast gene YLL041C): 1.0
The level of expressed mRNA in the presence of chemical substance/The level of expressed mRNA in the absence of chemical substance (yeast gene YLR038C): 2.1
The level of expressed mRNA in the presence of chemical substance/The level of expressed mRNA in the absence of chemical substance (yeast gene YLR259C): 1.6
The level of expressed mRNA in the presence of chemical substance/The level of expressed mRNA in the absence of chemical substance (yeast gene YLR295C): 1.7
The level of expressed mRNA in the presence of chemical substance/The level of expressed mRNA in the absence of chemical substance (yeast gene YLR304C): 0.7
The level of expressed mRNA in the presence of chemical substance/The level of expressed mRNA in the absence of chemical substance (yeast gene YLR348C): 1.2
The level of expressed mRNA in the presence of chemical substance/The level of expressed mRNA in the absence of chemical substance (yeast gene YLR395C): 1.9
The level of expressed mRNA in the presence of chemical substance/The level of expressed mRNA in the absence of chemical substance (yeast gene YML054C): 3.4
The level of expressed mRNA in the presence of chemical substance/The level of expressed mRNA in the absence of chemical substance (yeast gene YML120C): 1.9
The level of expressed mRNA in the presence of chemical substance/The level of expressed mRNA in the absence of chemical substance (yeast gene YML129C): 1.2
The level of expressed mRNA in the presence of chemical substance/The level of expressed mRNA in the absence of chemical substance (yeast gene YMR023C): 1.9
The level of expressed mRNA in the presence of chemical substance/The level of expressed mRNA in the absence of chemical substance (yeast gene YMR035W): 1.7
The level of expressed mRNA in the presence of chemical substance/The level of expressed mRNA in the absence of chemical substance (yeast gene YMR083W): 1.1
The level of expressed mRNA in the presence of chemical substance/The level of expressed mRNA in the absence of chemical substance (yeast gene YMR089C): 0.9
The level of expressed mRNA in the presence of chemical substance/The level of expressed mRNA in the absence of chemical substance (yeast gene YMR152W): 0.9
The level of expressed mRNA in the presence of chemical substance/The level of expressed mRNA in the absence of chemical substance (yeast gene YMR203W): 1.4
The level of expressed mRNA in the presence of chemical substance/The level of expressed mRNA in the absence of chemical substance (yeast gene YMR267W): 0.9
The level of expressed mRNA in the presence of chemical substance/The level of expressed mRNA in the absence of chemical substance (yeast gene YNL055C): 2.0
The level of expressed mRNA in the presence of chemical substance/The level of expressed mRNA in the absence of chemical substance (yeast gene YNL071W): 1.5
The level of expressed mRNA in the presence of chemical substance/The level of expressed mRNA in the absence of chemical substance (yeast gene YNL073W): 1.7
The level of expressed mRNA in the presence of chemical substance/The level of expressed mRNA in the absence of chemical substance (yeast gene YNL104C): 0.9
The level of expressed mRNA in the presence of chemical substance/The level of expressed mRNA in the absence of chemical substance (yeast gene YNL256W): 0.6
The level of expressed mRNA in the presence of chemical substance/The level of expressed mRNA in the absence of chemical substance (yeast gene YOL096C): 1.6
The level of expressed mRNA in the presence of chemical substance/The level of expressed mRNA in the absence of chemical substance (yeast gene YOR020C): 1.7
The level of expressed mRNA in the presence of chemical substance/The level of expressed mRNA in the absence of chemical substance (yeast gene YOR037W): 1.4
The level of expressed mRNA in the presence of chemical substance/The level of expressed mRNA in the absence of chemical substance (yeast gene YOR100C): 1.7
The level of expressed mRNA in the presence of chemical substance/The level of expressed mRNA in the absence of chemical substance (yeast gene YOR130C): 1.0
The level of expressed mRNA in the presence of chemical substance/The level of expressed mRNA in the absence of chemical substance (yeast gene YOR142W): 1.0
The level of expressed mRNA in the presence of chemical substance/The level of expressed mRNA in the absence of chemical substance (yeast gene YOR150W): 1.9
The level of expressed mRNA in the presence of chemical substance/The level of expressed mRNA in the absence of chemical substance (yeast gene YOR176W): 0.9
The level of expressed mRNA in the presence of chemical substance/The level of expressed mRNA in the absence of chemical substance (yeast gene YOR187W): 2.0
The level of expressed mRNA in the presence of chemical substance/The level of expressed mRNA in the absence of chemical substance (yeast gene YOR316C): 1.5
The level of expressed mRNA in the presence of chemical substance/The level of expressed mRNA in the absence of chemical substance (yeast gene YPL040C): 1.7
The level of expressed mRNA in the presence of chemical substance/The level of expressed mRNA in the absence of chemical substance (yeast gene YPL134C): 1.6
The level of expressed mRNA in the presence of chemical substance/The level of expressed mRNA in the absence of chemical substance (yeast gene YPL135W): 1.2
The level of expressed mRNA in the presence of chemical substance/The level of expressed mRNA in the absence of chemical substance (yeast gene YPL215W): 1.5
The level of expressed mRNA in the presence of chemical substance/The level of expressed mRNA in the absence of chemical substance (yeast gene YPL262W): 1.2
The level of expressed mRNA in the presence of chemical substance/The level of expressed mRNA in the absence of chemical substance (yeast gene YPR024W): 1.0
The level of expressed mRNA in the presence of chemical substance/The level of expressed mRNA in the absence of chemical substance (yeast gene YPR037C): 1.3
The level of expressed mRNA in the presence of chemical substance/The level of expressed mRNA in the absence of chemical substance (yeast gene YPR047W): 1.5
The level of expressed mRNA in the presence of chemical substance/The level of expressed mRNA in the absence of chemical substance (yeast gene YPR067W): 0.9
The level of expressed mRNA in the presence of chemical substance/The level of expressed mRNA in the absence of chemical substance (yeast gene YPR134W): 1.7
